Measurements published in patent US4623657A, “Spiro [benzofuran-2(3H),1'-cycloheptane]s and their therapeutic use” (Hoechst-Roussel Pharmaceuticals Inc., priority 1985, dated 1986).
Counter-ions that a name gives are not always drawn.

Columns and labels:
[1] = Antihypertensive activity, spontaneous hypertensive rat, indirect tail cuff method; format: in vivo; conditions: three days, measured on third day
Procedure: The spiro[benzofuran-2(3H),1'-cycloheptane]s of formula I of the present invention are useful as antihypertensive agents due to their ability to depress blood pressure in mammals. Antihypertensive activity is measured in the spontaneous hypertensive rat by the indirect tail cuff method described in "Methods in Pharmacology", A. Schwartz, Ed., Vol. I, Appleton-Century Crofts, New York, N. Y., 1971, p. 135. In this procedure a group of five animals are treated orally for three days with the test compound in relation to a control group of the same number. The drop in blood pressure is measured on the third day following administration. The antihypertensive activities of some of the compounds, expressed as a decrease in mean arterial blood pressure (in mm Hg), are given in Table I.

[2] = Analgesic activity, 2-phenyl-1,4-benzoquinone-induced writhing test; format: in vivo, mice
Excerpt: Compounds I of the present invention are useful as analgesic agents due to their ability to alleviate pain in mammals. […] Exptl. Biol. Med., 95, 729 (1957)].

[3] = Anticonvulsant activity, supramaximal electroshock assay (SES); format: in vivo, mice; conditions: Mus musculus, ip
Procedure: Compounds I of the present invention are useful as anticonvulsant agents. […] Groups of male mice (18-30 grams) are used. Drugs are prepared using distilled water and if insoluble, a surfactant is added. Control animals receive vehicle. Drugs are routinely administered intraperitoneally. The dosage volume is 10 ml/kg.
The animal's eyes are placed across the output terminals of an A.C. shocker that delivers 206 volts rms for 300 milliseconds. Electrode paste coats the animal's eyes at the point of contact with the terminals.
Protection is expressed as normalized percent inhibition relative to vehicle control. [formula]
A time response is carried out using 6 animals per group. Animals are tested at 30, 60 and 120 minutes postdrug. Additional time periods are tested if indicated by previous tests.
When the peak activity time has been determined, a dose response is initiated, using 10 animals per group at that time period. The ED50 and 95% confidence interval are calculated by computerized probit analysis.

[4] = Inhibition of tetrabenazine-induced ptosis (antidepressant activity); format: in vivo, mice; conditions: Mus musculus, ip, 0.5 h; i.p.; tetrabenazine 40 mg/kg i.p. 30 minutes after
Procedure: Compounds I of the present invention are useful as antidepressant agents due to their ability to prevent tetrabenazine induced ptosis in mice. The method used is as follows.
Male mice weighing 20 to 30 grams are used in test groups of five subjects. All compounds are dissolved, or suspended with one drop of a non-ionic surfactant in distilled water and administered in volumes of 10 ml/kg of body weight. Tetrabenazine (TBZ) solution is made from methanesulfonate salt and the concentration is adjusted to enable the administration of 40 mg/kg of base by intraperitoneal injection (i.p.).
If the test compound is administered intraperitoneally, TBZ is injected 30 minutes after administration. If the test compound is administered orally (p.o.), TBZ is injected 60 minutes after the administration. A control group received solvent and TBZ by the same route and at the same intervals as the drug groups.
Thirty and sixty minutes after TBZ injection the subjects are placed in individual plastic containers (10/1/2"×8"×6") and one minute after transfer they are scored for ptosis on the followig scale: eyes closed=4, eyes 3/4 closed=3, eyes 1/2 closed=2, eyes 1/4 closed=1, and eyes open=0. The total score for each group of five will therefore be from 0 to 20 and these scores are used as indications of drug activity.
The vehicle-control group score is used as a determinate of the validity of each test. […]

SMILES: C[C@](N)(Cc1ccc(O)c(O)c1)C(=O)O [alpha-Methyldopa, reference compound]
- Blood Pressure Drop ([1]; 50 mg/kg p.o.): 40 mm Hg

SMILES: CN(C)CCCC1c2cc(Cl)ccc2OC12CCCCCC2.Cl (stereo not shown) [5-Chloro-3-(3-dimethylaminopropyl)-spiro[benzofuran-2(3H),1'-cycloheptane] hydrochloride]
- % Inhibition at 20 mg/kg, s.c. [2]: 40%

SMILES: CCC(=O)O[C@](Cc1ccccc1)(c1ccccc1)[C@H](C)CN(C)C [Propoxyphene, reference compound]
- ED50 ([2]; Mus musculus, sc): 3.9 mg/kg

SMILES: CN(CCCC1c2ccccc2OC12CCCCCC2)CCc1ccccc1.O=C(O)/C=C/C(=O)O (stereo not shown) [N-Methyl-N-(2-phenylethyl)-spiro[benzofuran-2(3H),1'-cycloheptane]-3-propanamine fumarate]
- Blood Pressure Drop ([1]; 50 mg/kg p.o.): 76 mm Hg

SMILES: CC(C)NCC(O)CO/N=C1/c2ccccc2OC12CCCCCC2 (stereo not shown) [(Z)-O-[3-[(1-Methylethyl)amino]-2-hydroxypropyl]spiro[benzofuran-2(3H),1'-cycloheptan]-3-one oxime maleate]
- % Inhibition at 20 mg/kg, s.c. [2]: 40%

SMILES: CN(CCCC1c2ccccc2OC12CCCCCC2)Cc1ccccc1 (stereo not shown) [N-Methyl-N-[3-[spiro[benzofuran-2(3H),1'-cyclohept-3-yl]]propyl]benzenemethanamine maleate]
- % Inhibition at 20 mg/kg, s.c. [2]: 54%

SMILES: CN(C)CCC=C1c2ccccc2OC12CCCCCC2
- Blood Pressure Drop ([1]; 50 mg/kg p.o.): 32 mm Hg

SMILES: CN(C)CCCC1c2ccccc2OC12CCCCCC2 (stereo not shown) [3-(3-Dimethylaminopropyl)-spiro[benzofuran-2(3H),1'-cycloheptane]hydrochloride]
- ED50 [3]: 30.6 mg/kg

SMILES: CN(CCCC(c1ccc(F)cc1)c1ccc(F)cc1)CCCC1c2ccccc2OC12CCCCCC2 (stereo not shown) [N-[4-[Bis(4-fluorophenyl)]-butyl]-N-methyl-spiro[benzofuran-2(3H),1'-cycloheptane]-3-propanamine fumarate]
- Blood Pressure Drop ([1]; 30 mg/kg p.o.): 61 mm Hg
- % Inhibition at 20 mg/kg, s.c. [2]: 70%

SMILES: CNC1=Nc2ccc(Cl)cc2C(c2ccccc2)=[N+]([O-])C1 [Chlordiazepoxide, reference compound]
- ED50 [3]: 8 mg/kg

SMILES: CN(C)CCO/N=C1/c2ccccc2OC12CCCCCC2 [(Z)-O-Dimethylaminoethyl-spiro[benzofuran-2(3H),1'-cycloheptan]-3-one oxime maleate]
- ED50 [3]: 30.2 mg/kg
- ED50 [4]: 72.5 mg/kg
